Measured values from ChEMBL document CHEMBL1151357, “Inhibition of Plant Growth by Phenethylamines and Tetrahydroisoquinolines” (1981).
Active and inactive are the calls of the source. The calls are words filed in the database; no cut-off is given here.

Experiments:
Phaseolus vulgaris [1] = assay: Phytotoxicity against pinto bean plants assessed as induction of necrosis at 150 ug after 4 days; format: functional, organism-based
Phaseolus vulgaris [2] = assay: Phytotoxicity against pinto bean plants assessed as induction of necrosis at 50 ug after 4 days; format: functional, organism-based
Phaseolus vulgaris [3] = assay: Growth inhibition of pinto bean plants assessed as inhibition of second inter node elongation at 50 ug after 4 days relative to control; format: functional
Phaseolus vulgaris [4] = assay: Growth inhibition of pinto bean plants assessed as inhibition of second inter node elongation at 150 ug after 4 days relative to control; format: functional
Phaseolus vulgaris [5] = assay: Growth promoting activity in pinto bean plants at =>150 ug after 4 days; format: functional, organism-based
Sorghum bicolor = assay: Growth inhibition of Rio sorghum seedlings assessed as shoot growth from seed coat to tip of second leaf at 1 mg/ml after 4 days; format: functional

SMILES | Activity (Phaseolus vulgaris [1]) | Activity (Phaseolus vulgaris [2]) | inhibition (INH) (Phaseolus vulgaris [3]) [%] | inhibition (INH) (Phaseolus vulgaris [4]) [%] | Activity (Phaseolus vulgaris [5]) | Activity (Sorghum bicolor) [mm]
COc1cc2c(c(OC)c1OC)CNCC2 | Active | Active | – | – | – | –
CI.COc1cc2c(c(OC)c1OC)CNCC2 [ANHALININE METHYLIODIDE] | – | – | 100 | 100 | – | –
COc1c(OC(=O)c2ccccc2)c(OC(=O)c2ccccc2)cc2c1C(C)NCC2.Cl (stereo unspecified) | – | – | 26 | 26 | – | –
CN1CCc2cc3c(c(O)c2C1)OCO3.Cl | – | – | 0 | 0 | Active | –
COc1cc2c(c(OC)c1OC)CNCC2.Cl [ANHALININE HYDROCHLORIDE] | – | – | 0 | 100 | – | –
O=C1CCC2(C(=O)O)c3cc(O)c(O)cc3CCN12 (stereo unspecified) | – | – | 26 | 26 | Active | –
COc1ccc2c(c1OC)C(C)N(C)CC2.Cl (racemic) | Active | – | 26 | 100 | – | –
COc1cc(CCN)cc(OC(=O)c2ccccc2)c1OC.Cl | – | – | 51 | 0 | – | –
COc1cc([C@@H](O)[C@H](C)N)cc(OC)c1OC.O=C(O)C(O)C(O)C(=O)O | – | – | 26 | 0 | – | –
Cl.NCC(O)c1cccc(O)c1 (stereo unspecified) [NORPHENYLEPHRINE HYDROCHLORIDE] | – | – | 26 | – | – | –
COc1cc2c(cc1O)CCN[C@H]2C.Cl [SALSOLINE HYDROCHLORIDE] | – | – | 26 | 51 | – | –
Cl.NCCc1cc(O)c(O)cc1O [OXIDOPAMINE HYDROCHLORIDE] | – | – | 26 | 26 | – | –
Cl.NCCc1ccc(O)c(O)c1 [DOPAMINE HYDROCHLORIDE] | – | – | 26 | 0 | – | 40.44
COc1cc([C@@H](O)[C@H](C)N)cc(OC)c1OC.O=C(O)C(=O)O | – | – | 26 | 0 | – | –
COc1cc2c(c(OC)c1OC)C(C)NCC2.Cl (racemic) | – | – | 26 | 51 | – | –
COc1cc([C@@H](O)[C@H](C)N)cc(O)c1OC.O=C(O)C(=O)O | Active | – | 0 | 26 | – | –

SMILES | Activity (Phaseolus vulgaris [1]) | Activity (Phaseolus vulgaris [2]) | inhibition (INH) (Phaseolus vulgaris [3]) [%] | inhibition (INH) (Phaseolus vulgaris [4]) [%] | Activity (Phaseolus vulgaris [5]) | Activity (Sorghum bicolor) [mm]
C[N+](C)(C)CCc1ccc(O)cc1.[I-] [CANDICINE IODIDE] | Active | Active | 76 | 76 | – | 33.22
COc1cc2c(c(OC)c1OC)[C@H](C)[N+](C)(C)CC2.[I-] | – | Active | 26 | 51 | – | –
COc1cc2c(c(O)c1OC)[C@H](C)N(C)CC2.Cl [PELLOTINE HYDROCHLORIDE] | – | – | 26 | 0 | – | –
COc1cc(CCn2cccc2)cc(OC)c1OC [DECARBOXYPEYONINE] | – | – | 51 | 26 | – | –
COc1cc2c(cc1OC)[C@H](C)N(C)CC2.Cl [CARNEGINE HYDROCHLORIDE] | – | Active | 100 | 100 | – | –
COc1cc([C@@H](O)[C@H](C)N)cc(OC)c1OC.Cl | – | – | 26 | 26 | – | –
COc1cc2c(c(OC)c1OC)C(O)CNC2 (stereo unspecified) | – | – | 0 | 0 | – | –
COc1cc(CCn2cccc2C(=O)O)cc(OC)c1OC [PEYONINE] | – | – | 0 | – | – | –
COc1cc(CCN)cc(O)c1OC.Cl | Active | Active | 76 | 76 | – | –
COc1cc([C@@H](O)[C@H](C)N)cc(OC)c1OC | Active | – | – | – | – | –
CC1(C(=O)O)NCCc2cc(O)c(O)cc21 (stereo unspecified) | – | – | 51 | 0 | Active | –
COC(=O)c1cccn1CCc1cc(OC)c(OC)c(OC)c1 [PEYONINE METHYL ESTER] | – | – | 0 | – | – | –
COc1cc2c(c(O)c1OC)[C@H](C)[N+](C)(C)CC2.[I-] | – | Active | 0 | 51 | – | –
O=C(O)C1NCCc2cc(O)c(O)cc21 (stereo unspecified) | – | – | 26 | 26 | Active | –
COc1cc(CC[N+](C)(C)C)cc(OC)c1OC.[I-] [TRICHOCERINE METHYL IODIDE] | Active | Active | 76 | 76 | – | 36.22
